Assay results from the supplement of paper PMC8671470.

Assays:
Settings in all cases: 72 h
[1] = test system: HL-60; experiment: area under dose-response curve (viability, 1 nM-10 uM) (fraction (0-1)); higher = more sensitive
Summary of the method: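 A rescreen of the full library used HL-60 cells in RPMI 1640 with 10% FBS on 384-well plates, run in duplicate at five tenfold concentrations (1–10,000 nM). Each screen included DMSO or 100 nM of one of three metabolic inhibitors and ran 72 h at 37 °C, 5% CO2. CellTiter-Glo viability was scaled between DMSO and 10 μM proteasome-inhibitor wells. Any area under the curve comes from four-parameter log-logistic fits with drc and PharmacoGx.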

[2] = test system: Mono-Mac-6; experiment: cell viability (% survival relative to DMSO control, bortezomib = 0%); higher = less cytotoxic
Summary of the method: (§1)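 Fifteen myeloid leukaemia cell lines were exposed to compounds at 1, 10, 100, 1000 or 10000 nM in 384-well plates for 72 h at 37 °C and 5% CO2. Viability was read by CellTiter-Glo luminescence and normalised, with vehicle as 100% and a 10 µM positive control as 0%. Values are percent survival averaged over duplicates.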

[3] = test system: SHI-1; experiment: as above
Summary of the method: as §1

[4] = test system: KU-812; experiment: as above
Summary of the method: as §1

[5] = co-treatment: GSK2194069 100 nM
[6] = co-treatment: pictilisib 100 nM

Row | Structure (SMILES) | area under dose-response curve ([1]; co-treatment: AZD3965 100 nM) | area under dose-response curve ([1]; co-treatment: DMSO vehicle) | area under dose-response curve [1, 5] | area under dose-response curve [1, 6] | cell viability ([2]; 1 nM) [%] | cell viability ([2]; 10 nM) [%] | cell viability ([2]; 100 nM) [%] | cell viability ([2]; 1000 nM) [%] | cell viability ([2]; 10000 nM) [%] | cell viability ([3]; 1 nM) [%] | cell viability ([3]; 10 nM) [%] | cell viability ([3]; 100 nM) [%] | cell viability ([3]; 1000 nM) [%] | cell viability ([3]; 10000 nM) [%] | cell viability ([4]; 1 nM) [%] | cell viability ([4]; 10 nM) [%] | cell viability ([4]; 100 nM) [%] | cell viability ([4]; 1000 nM) [%] | cell viability ([4]; 10000 nM) [%]
1 | Clc1ccc2c(c1Cl)CNCC2 | < 0.0301 | < 0.0301 | < 0.0301 | < 0.0301 | 95.3 | 103 | 104 | 106 | 77.4 | 116 | 122 | 110 | 112 | 96.1 | 99.9 | 92.5 | 94.4 | 118 | 87.8
2 | O=C(O)C(S)=Cc1c[nH]c2ccc(F)cc12 |  |  |  |  | 104 | 94.7 | 93.5 | 74.2 | 74.1 | 103 | 97.6 | 104 | 102 | 88.5 | 102 | 103 | 101 | 112 | 102
3 | CC(C)Cc1sc(N)nc1-c1ccc(P(=O)(O)O)o1 | < 0.0301 | < 0.0301 | < 0.0301 | < 0.0301 | 97.6 | 85.3 | 95.2 | 101 | 86.6 | 106 | 98.3 | 106 | 98.7 | 104 | 96.3 | 94.9 | 98.7 | 90.6 | 88.2
4 | Cl.OC[C@H]1NC[C@@H](O)[C@@H](O)[C@@H]1O [1-Deoxymannojirimycin hydrochloride] | < 0.0301 | < 0.0301 | < 0.0301 | < 0.0301 | 108 | 89.9 | 109 | 87.2 | 96.2 | 105 | 96.3 | 98.7 | 110 | 89.5 | 101 | 89.2 | 95.7 | 98 | 98.1
5 | CN(C)c1nc(O)c2[nH]cnc2n1 [2-Dimethylamino-6-hydroxypurine] | < 0.0301 | < 0.0301 | < 0.0301 | < 0.0301 | 97.2 | 100 | 86.9 | 99.4 | 113 | 104 | 90.8 | 94.8 | 99.9 | 98.2 | 93.8 | 96.7 | 91 | 94.2 | 103
6 | O=C(O)c1cc2sccc2[nH]1 [4H-thieno[3,2-b]pyrrole-5-carboxylic acid] | < 0.0301 | < 0.0301 | < 0.0301 | < 0.0301 | 104 | 92.6 | 99.5 | 92.6 | 101 | 108 | 96.4 | 90.4 | 97 | 107 | 95.9 | 98.3 | 98.9 | 101 | 108
7 | [N-]=[N+]=CC(=O)CC[C@H](N)C(=O)O [6-Diazo-5-oxo-L-norleucine] | < 0.0301 | < 0.0301 | < 0.0301 | < 0.0301 | 88 | 90.2 | 92.4 | 97.8 | 104 | 110 | 101 | 103 | 104 | 99 | 95 | 102 | 110 | 97.3 | 104
8 | O=C(O)CC[C@H](NC(=O)c1ccc([N+](=O)[O-])cc1)C(=O)O [(S)-2-(4-Nitrobenzamido)pentanedioic acid] | < 0.0301 | < 0.0301 | < 0.0301 | < 0.0301 | 96 | 103 | 94.9 | 97.6 | 98 | 97.5 | 107 | 102 | 102 | 93.9 | 91.6 | 100 | 98.7 | 96.9 | 89.8
9 | O=C1Nc2ccccc2/C1=C\NCCc1ccc(O)c(O)c1 [AC1NZZMF] | < 0.0301 | < 0.0301 | < 0.0301 | < 0.0301 | 105 | 102 | 102 | 96.9 | 74.4 | 88.8 | 108 | 89 | 103 | 90.8 | 114 | 113 | 108 | 110 | 68.7
10 | Cc1ccc(S(=O)(=O)NC2c3ccccc3Oc3ccccc32)cc1 [AH-7614] | < 0.0301 | < 0.0301 | < 0.0301 | < 0.0301 | 101 | 95.7 | 111 | 94.9 | 101 | 105 | 110 | 105 | 97.1 | 85.5 | 93.7 | 101 | 99.1 | 97.7 | 106
11 | C[C@]12CC[C@H](O)CC1=CC[C@@H]1[C@@H]2CC[C@]2(C)C(c3cccnc3)=CC[C@@H]12 [Abiraterone] | < 0.0301 | < 0.0301 | < 0.0301 | < 0.0301 | 97.7 | 101 | 85.2 | 96.1 | 108 | 119 | 108 | 106 | 108 | 112 | 88.8 | 94.8 | 101 | 108 | 101
12 | O=C(COc1ccc(C(=O)c2ccccc2)cc1)NC1CCN(Cc2ccccc2)CC1 [AdipoRon] | < 0.0301 | < 0.0301 | < 0.0301 | < 0.0301 | 96.3 | 101 | 99.9 | 98.1 | 90.7 | 92.5 | 104 | 96 | 103 | 71.7 | 94.6 | 114 | 90.9 | 98.3 | 41.5
13 | CCOC(=O)[C@H]1O[C@@H]1C(=O)N[C@@H](CC(C)C)C(=O)NCCC(C)C [Aloxistatin] | < 0.0301 | < 0.0301 | < 0.0301 | < 0.0301 | 97.3 | 108 | 104 | 89 | 81.7 | 102 | 92.6 | 104 | 102 | 92.5 | 94 | 104 | 103 | 105 | 96.5
14 | N[C@](CCCCB(O)O)(CCN1CCCCC1)C(=O)O [Arginase inhibitor 1] | 0.0306 | 0.0367 | 0.0592 |  | 101 | 83.8 | 93.1 | 93.8 | 94.5 | 92 | 105 | 90.1 | 110 | 92.8 | 102 | 84.6 | 85.6 | 108 | 89.4
15 | CCOc1ccc(Cc2cc([C@@H]3O[C@H](CO)[C@@H](O)[C@H](O)[C@H]3O)ccc2Cl)cc1 [Dapagliflozin] | < 0.0301 | < 0.0301 | < 0.0301 | < 0.0301 | 91.5 | 95.1 | 87.5 | 91.7 | 88.8 | 99.4 | 114 | 85.2 | 91.1 | 107 | 85.7 | 96.5 | 90.5 | 106 | 81.3
16 | O=C(O)C(Cl)Cl [Dichloroacetate] | < 0.0301 | < 0.0301 | < 0.0301 | < 0.0301 | 92.4 | 92.4 | 113 | 98.8 | 102 | 99.7 | 104 | 96.8 | 101 | 103 | 97.1 | 90.9 | 99 | 108 | 100
17 | O=C1Oc2ccccc2C(=O)C1CC1C(=O)Oc2ccccc2C1=O (configuration not stated) [Dicumarol] | < 0.0301 | < 0.0301 | < 0.0301 | < 0.0301 | 103 | 111 | 86.5 | 95.7 | 106 | 95.8 | 105 | 104 | 106 | 105 | 110 | 95.6 | 84.2 | 97.8 | 107
18 | O=c1c2ccccc2[se]n1-c1ccccc1 [Ebselen] | < 0.0301 | < 0.0301 | < 0.0301 | < 0.0301 | 99.1 | 93.8 | 103 | 98.1 | 84.6 | 107 | 96.5 | 106 | 92.6 | 88.6 | 94.5 | 104 | 89.5 | 99.4 | 87.8
19 | Clc1ccc(COC(Cn2ccnc2)c2ccc(Cl)cc2Cl)cc1 (configuration not stated) [Econazole] |  |  |  |  | 102 | 92.1 | 86.7 | 78.4 | 58.8 | 112 | 91 | 98.8 | 87.2 | 62.1 | 113 | 101 | 87.2 | 89.5 | 41.9
20 | C#Cc1cnc(O)nc1O [Eniluracil] | < 0.0301 | < 0.0301 | < 0.0301 | < 0.0301 | 104 | 125 | 105 | 106 | 97.4 | 97.7 | 106 | 114 | 103 | 102 | 94.9 | 109 | 95.2 | 94.3 | 89.7
21 | CC(/C=C1\SC(=S)N(CC(=O)O)C1=O)=C\c1ccccc1 [Epalrestat] | < 0.0301 | < 0.0301 | < 0.0301 | < 0.0301 | 106 | 103 | 103 | 93.9 | 116 | 120 | 100 | 106 | 93.5 | 113 | 101 | 91.6 | 94.9 | 95.4 | 111
22 | CCOC(=O)[C@@]1(CCCCCCOc2ccc(Cl)cc2)CO1 [Etomoxir] | < 0.0301 | < 0.0301 | < 0.0301 | < 0.0301 | 93.5 | 94.4 | 92.9 | 95.7 | 96.3 | 107 | 108 | 110 | 105 | 104 | 91.3 | 110 | 93.5 | 82.7 | 60.8
23 | Cc1c(-c2ccccc2)oc2c(C(=O)OCCN3CCCCC3)cccc2c1=O.Cl [Flavoxate] | < 0.0301 | < 0.0301 | < 0.0301 | < 0.0301 | 92.6 | 105 | 101 | 96 | 94.6 | 94.8 | 99.6 | 97.6 | 98.4 | 101 | 92.2 | 110 | 111 | 99 | 99.2
24 | O=C(O)CCc1ccc(NCc2cccc(Oc3ccccc3)c2)cc1 [GW9508] | < 0.0301 | < 0.0301 | < 0.0301 | < 0.0301 | 101 | 104 | 108 | 110 | 104 | 102 | 99.4 | 120 | 97.8 | 107 | 89.2 | 92.4 | 101 | 98.8 | 99.3
25 | CC(C(=O)O)C(=O)O [Methylmalonate] |  |  |  |  | 96.2 | 93 | 106 | 96.1 | 90.3 | 98.9 | 83.3 | 105 | 88.7 | 97 | 90.1 | 93.7 | 97 | 90.5 | 85.6
26 | COc1cc2c(NC3CCN(C)CC3)nc(N3CCCN(C)CC3)nc2cc1OCCCN(C)C [UNC0224] |  |  |  |  | 100 | 116 | 101 | 98.5 | 81.4 | 91.9 | 108 | 102 | 93.1 | 73.7 | 98.7 | 107 | 89.8 | 106 | 79.5
27 | CC(C)C[C@H](NC(=O)[C@@H](O)[C@H](N)Cc1ccccc1)C(=O)O [Ubenimex] |  |  |  |  | 99.5 | 116 | 96.4 | 83.1 | 90.1 | 99.4 | 104 | 93.2 | 80.5 | 91.3 | 110 | 109 | 97.8 | 97.4 | 115
28 | O=P(O)(O)C(O)(Cn1ccnc1)P(=O)(O)O [Zoledronic acid] |  |  |  |  | 96.7 | 104 | 91.1 | 91 | 96.7 | 108 | 116 | 102 | 100 | 104 | 96.1 | 95.7 | 95.9 | 94.6 | 92.7
